Data as given in patent US20230355568A1, “THERAPEUTIC AGENT FOR MALIGNANT MESOTHELIOMA AND METHOD FOR SELECTING PATIENT HAVING MALIGNANT MESOTHELIOMA” (National University Corporation Tokai National Higher …, priority 2020, published 2023).
Structures can show the parent of a compound that is named as a salt. Bridge positions count the residues as written; N and C are the ends. Square brackets hold non-standard residues; d marks the D form. Peptide text beside a SMILES is read from it. Orn = NCCC[C@H](N)C(=O)O; Mpa = O=C(O)CCS

Experiments:
[1] = tested on: malignant mesothelioma cell line NCI-2373; test: WST-1 assay with oxytocin receptor inhibitor, NCI-2373; type: cell-based; settings: culture five days, Cligosiban 0-60 μM, other inhibitors 0-80 μM (FIG. 3, FIG. 4)
Experimental: (§1) The procedure is illustrated below. • (1) Cells of malignant mesothelioma cell line NCI-H2052 were seeded on a dish and cultured for one day. • (2) Cligosiban was administered to the dish at a concentration of 0, 5, 10, 15, 20, or 25 μM. • (3) After culture for five days, evaluation with WST-1 assay was performed. The WST-1 assay is an assay method to administer cell proliferation test agent WST-1 (product number: 11644807001, purchased from Roche) and evaluate cell proliferation by a colorimetric method.
The same procedure as that in Example 3 was applied except that the malignant mesothelioma cell line was replaced with NCI-2373 (purchased from ATCC) and Cligosiban was administered to the dish at a concentration of 0, 20, 30, 40, 50, or 60 μM.
The same procedure as that in Example 4 was applied except that the oxytocin receptor inhibitor was replaced with OT-R antagonist 1, which was administered to the dish at a concentration of 0, 20, 40, 60, or 80 μM.
The same procedure as that in Example 6 was applied except that the oxytocin receptor inhibitor was replaced with L368,899 hydrochloride.
The same procedure as that in Example 6 was applied except that the oxytocin receptor inhibitor was replaced with Atosiban.

[2] = tested on: malignant mesothelioma cell line NCI-H2052; test: Proliferation suppression of malignant mesothelioma cells with Cligosiban using Xenograft model; type: in vivo; settings: NCI-H2052 subcutaneous in nude mice, Cligosiban oral 60 mg/kg every other day, 10 doses, vs no Cligosiban (FIG. 1)
Experimental: (§2) The procedure is illustrated below. • (1) 5.0×10^6 cells of malignant mesothelioma cell line NCI-H2052 (purchased from ATCC) were administered to the subcutaneous left buttock of nude mice (BALB/c nude (nu/nu) female, 6 to 8 weeks old: purchased from Charles River Japan). • (2) After 3 days from the subcutaneous administration, oral administration of Cligosiban (purchased from MedChemExpress) was started, and the oral administration was applied at each dose of 60 mg/kg every other day for a total of 10 doses. • (3) After one week from the tenth oral administration, the nude mice were dissected, and the subcutaneous tumor weights were measured.
The same procedure as that in Example 1 was applied except that no Cligosiban was administered.

[3] = tested on: malignant mesothelioma cell line NCI-H2373; test: WST-1 assay, combined use of Cligosiban and cisplatin, NCI-H2373; type: cell-based; settings: Cligosiban 45 μM and/or cisplatin 6 μM, culture five days (FIG. 8)
Experimental: (§3) The procedure is illustrated below. • (1) Cells of malignant mesothelioma cell line NCI-H2373 were seeded on a dish and cultured for one day. • (2) Cligosiban 45 μM and cisplatin (product number 033-20091, purchased from FUJIFILM Wako Pure Chemical Corporation) 6 μM were administered to the dish. • (3) After culture for five days, evaluation with WST-1 assay was performed.
The same procedure as that in Example 21 was applied except that only Cligosiban 45 μM was administered.
The same procedure as that in Example 21 was applied except that neither Cligosiban 45 μM nor cisplatin 6 μM was administered.
The same procedure as that in Example 21 was applied except that only cisplatin 6 μM was administered.

[4] = tested on: malignant mesothelioma cell line NCI-H2052; test: WST-1 assay, combined use of Cligosiban and cisplatin, NCI-H2052; type: cell-based; settings: Cligosiban 15 μM and/or cisplatin 0.8 μM, culture five days (FIG. 8)
Experimental: as §3
The same procedure as that in Example 21 was applied except that the malignant mesothelioma cell line was replaced with NCI-H2052 and that Cligosiban 15 μM and cisplatin 0.8 μM were administered to the dish.
The same procedure as that in Example 22 was applied except that the malignant mesothelioma cell line was replaced with NCI-H2052 and that Cligosiban 15 μM was administered.
The same procedure as that in Example 23 was applied except that neither Cligosiban 15 μM nor cisplatin 0.8 μM was administered.
The same procedure as that in Example 23 was applied except that only cisplatin 0.8 μM was administered.

[5] = tested on: malignant mesothelioma cell line NCI-H2052; test: Xenograft model: cisplatin and pemetrexed, Cligosiban, and combined use; type: in vivo; settings: NCI-H2052 subcutaneous in nude mice; Cligosiban oral 60 mg/kg every other day, 10 doses from day 7; cisplatin 2 mg/kg and pemetrexed 25 mg/kg once tail vein day 7; measured two days after tenth dose (FIG. 9)
Experimental: as §2, with “After 7” for “After 3”, “After 7 days from the subcutaneous administration, cisplatin (product number 033-20091, purchased from FUJIFILM Wako Pure Chemical Corporation) 2 mg/kg and pemetrexed disodium heptahydrate (product number 161-26263, purchased from FUJIFILM Wako Pure Chemical Corporation) 25 mg/kg were once injected into a tail vein. • (4) After two days” for “After one week”, “oral administration of Cligosiban,” for “oral administration,”
The same procedure as that in Example 25 was applied except that neither cisplatin nor pemetrexed was administered.
The same procedure as that in Example 25 was applied except that neither Cligosiban nor cisplatin and pemetrexed was administered.
The same procedure as that in Example 25 was applied except that Cligosiban was not administered.

[6] = tested on: malignant mesothelioma cell line NCI-H2052; test: WST-1 assay with oxytocin receptor inhibitor, NCI-H2052; type: cell-based; settings: culture five days, Cligosiban 0-25 μM, other inhibitors 0-80 μM (FIG. 3, FIG. 4)
Experimental: as §1
The same procedure as that in Example 3 was applied except that the oxytocin receptor inhibitor was replaced with OT-R antagonist 1 (purchased from MedChemExpress), which was administered to the dish at a concentration of 0, 20, 40, 60, or 80 μM.
The same procedure as that in Example 5 was applied except that the oxytocin receptor inhibitor was replaced with L368,899 hydrochloride (purchased from MedChemExpress).
The same procedure as that in Example 5 was applied except that the oxytocin receptor inhibitor was replaced with Atosiban (purchased from MedChemExpress).

SMILES | proliferation of malignant mesothelioma cells (WST-1 assay) [1] | subcutaneous tumor weight ([2]; from day 3, measured one week after tenth dose) | growth of the subcutaneous tumor [2] | proliferation of malignant mesothelioma cells (WST-1 assay) [3] | proliferation of malignant mesothelioma cells (WST-1 assay) [4] | subcutaneous tumor weight [5] | proliferation of malignant mesothelioma cells (WST-1 assay) [6]
COCc1nnc(N2CC(Oc3ccc(F)cc3Cl)C2)n1-c1ccc(OC)nc1 [Cligosiban] | more suppresses proliferation of malignant mesothelioma cells | smaller than that of Comparative example 1 | suppresses growth of the subcutaneous tumor statistically, significantly compared to Comparative example 1 | more suppresses proliferation of malignant mesothelioma cells than Comparative example 11 and Comparative example 13 | more suppresses proliferation of malignant mesothelioma cells than Comparative example 11 and Comparative example 13 | smaller than the subcutaneous tumor weight of Comparative example 16 | more suppresses proliferation of malignant mesothelioma cells
Cc1ccccc1N1CCN(S(=O)(=O)C[C@@]23CC[C@H](CC2NC(=O)[C@H](N)CCS(C)(=O)=O)C3(C)C)CC1 (stereo partly drawn) [L368,899 hydrochloride] | proliferation of malignant mesothelioma cells was suppressed | – | – | – | – | – | proliferation of malignant mesothelioma cells was suppressed
CCOc1ccc(C[C@H]2NC(=O)CCSSC[C@@H](C(=O)N3CCC[C@H]3C(=O)N[C@@H](CCCN)C(=O)NCC(N)=O)NC(=O)[C@H](CC(N)=O)NC(=O)[C@H]([C@@H](C)O)NC(=O)[C@H]([C@@H](C)CC)NC2=O)cc1 [Atosiban] ([Mpa][dY](Et)ITNCP[Orn]G-NH2; disulfide 1-6) | proliferation of malignant mesothelioma cells was suppressed | – | – | – | – | – | proliferation of malignant mesothelioma cells was suppressed
CO/N=C1/C[C@@H](C(=O)NC[C@@H](O)c2ccccc2)N(C(=O)c2ccc(-c3ccccc3C)cc2)C1 [OT-R antagonist 1] | proliferation of malignant mesothelioma cells was suppressed | – | – | – | – | – | proliferation of malignant mesothelioma cells was suppressed
N.N.[Cl][Pt][Cl] [cisplatin] | – | – | – | more suppresses proliferation of malignant mesothelioma cells than Comparative example 11 and Comparative example 13 | more suppresses proliferation of malignant mesothelioma cells than Comparative example 11 and Comparative example 13 | – | –
